In patent US12398154B2, “Azaquinazoline pan-KRas inhibitors” (Mirati Therapeutics, Inc., priority 2020, dated 2025):

Columns and labels:
[1] = target: KRas G12D (Homo sapiens, UniProt P01116, G12D); test: biochemical;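 also: TR-FRET displacement binding assay on KRas, read after a one-hour incubation at room temperature, IC50 fitted from percent-of-control values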
Description: (§1) The ability of a compound to bind to KRas was measured using a TR-FRET displacement assay. […] After a 60-minute incubation at room temperature, the reaction was measured using a BMG LABTECH CLARIO star Plus via TR-FRET. […] The POC values were fit to a 4-parameter IC50 equation and the IC50 value reported.

[2] = target: KRas G12V (Homo sapiens, UniProt P01116, G12V); test: biochemical;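 also: KRas binding measured by TR-FRET displacement at room temperature, IC50 fitted from percent of control values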
KRas G12V, sequence (P01116 1-169 isoform P01116-2 G12V): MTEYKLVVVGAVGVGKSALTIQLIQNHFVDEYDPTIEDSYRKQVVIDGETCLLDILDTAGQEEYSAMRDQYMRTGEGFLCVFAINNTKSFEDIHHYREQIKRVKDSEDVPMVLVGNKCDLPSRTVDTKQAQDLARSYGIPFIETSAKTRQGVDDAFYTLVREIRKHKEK
Description: as §1

[3] = target: KRas G12R (Homo sapiens, UniProt P01116, G12R); test: biochemical;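 also: TR-FRET displacement assay of compound binding to KRas, read after one hour at room temperature, potency from a four-parameter fit of percent-of-control values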
KRas G12R, sequence (P01116 1-169 isoform P01116-2 G12R): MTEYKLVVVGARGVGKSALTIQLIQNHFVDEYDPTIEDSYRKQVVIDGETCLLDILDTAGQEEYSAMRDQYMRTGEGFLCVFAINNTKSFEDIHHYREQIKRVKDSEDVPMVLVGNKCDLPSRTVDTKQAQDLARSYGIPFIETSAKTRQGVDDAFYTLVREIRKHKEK
Description: as §1

[4] = test system: pERK in MKN1 cells; test: Inhibition of KRas phosphorylation of ERK (Cisbio HTRF pERK assay); conditions: Homo sapiens, MKN-1, 3 h, read-out: Inhibition (HTRF IC50) of KRas-mediated Phosphorylation of ERK, MKN1
[5] = test system: pERK in PSN1 cells; test: as above; conditions: Homo sapiens, PSN1, 3 h, read-out: Inhibition (HTRF IC50) of KRas-mediated Phosphorylation of ERK, PSN1
Description: To harvest cells from flask using 0.05% Trypsin/EDTA solution. Add 10 mL of media to stop trypsinizing. Pipette the cells into a conical bottom 50 mL centrifuge tube and centrifuge 5 min×1000 rpm. • 2. Re-suspend the cell pellet in media, take a cell count, and then adjust the cell density using fresh media. • 3. Seed 6,000 cells into cell culture plate with 50 μL media. […] Incubate cell plate overnight in a 37° C., 5% CO2 incubator. • Compound titrations • 1. Use Tecan to complete the compound addition. Compounds start from 10 uM top, 3-fold dilution, and 10 doses. The final DMSO concentration is 0.8%. Dispensed 0.2 uM Trametinib as Min control. • 2. Incubate cell plate for 3 hrs in the incubator. • Detection with cisbio pERK HTRF kit • 1. […] At the end of the compound treatment, flick-off the media. • 3. Add 35 μL of lysis buffer per well using a Multidrop Combi. Then place on a plate agitator shaking at 300 rpm at 4° C. for 40 mins. • 4. Make up the HTRF antibody buffer. For each assay plate, mix 50 μL of d2-conjugate antibody with 950 μL of detection buffer. Similarly, mix 50 μL of Cryptate antibody with 950 μL of detection buffer. Then mix the two diluted antibodies together. • 5. Dispense 3.4 μL the antibody buffer to wells of an empty assay plate. Seal the plate and centrifuge plate 30 sec×1000 rpm. • 6. At the end of the 4° C. lysis, centrifuge the lysate plates 3 mins×1500 rpm. • 7. Use the Bravo to transfer 13.6 μL of lysate from cell culture plate to assay plate.
Then incubate assay plate for 2 hrs at room temperature. […] At the end of incubation, read plate on the Envision after centrifuging plate 30 sec× • 1000 rpm.

[6] = test system: pERK in ASPC1 cells; test: as above; conditions: Homo sapiens, ASPC1, read-out: Inhibition (HTRF IC50) of KRas-mediated Phosphorylation of ERK, AsPC-1
[7] = test system: pERK in H727 cells; test: as above; conditions: Homo sapiens, NCI-H727, read-out: Inhibition (HTRF IC50) of KRas-mediated Phosphorylation of ERK, H727
[8] = test system: pERK in HCT116 cells; test: as above; conditions: Homo sapiens, HCT-116, read-out: Inhibition (HTRF IC50) of KRas-mediated Phosphorylation of ERK, HCT116
[9] = target: KRas G12C (Homo sapiens, UniProt P01116, G12C); test: biochemical;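 also: binding to KRas assessed by TR-FRET displacement after one hour incubation at room temperature, potency fitted from percent-of-control values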
KRas G12C, sequence (P01116 1-169 isoform P01116-2 G12C): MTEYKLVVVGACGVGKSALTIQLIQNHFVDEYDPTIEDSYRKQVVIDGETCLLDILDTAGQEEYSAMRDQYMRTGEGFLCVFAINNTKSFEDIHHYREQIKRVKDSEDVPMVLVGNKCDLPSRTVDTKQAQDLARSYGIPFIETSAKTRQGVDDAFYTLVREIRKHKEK
Description: as §1

[10] = target: KRas WT (Homo sapiens, UniProt P01116); test: biochemical;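 also: binding to KRas read as TR-FRET displacement after a one-hour room-temperature incubation, IC50 derived from percent-of-control values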
KRas WT, sequence (P01116 1-169 isoform P01116-2): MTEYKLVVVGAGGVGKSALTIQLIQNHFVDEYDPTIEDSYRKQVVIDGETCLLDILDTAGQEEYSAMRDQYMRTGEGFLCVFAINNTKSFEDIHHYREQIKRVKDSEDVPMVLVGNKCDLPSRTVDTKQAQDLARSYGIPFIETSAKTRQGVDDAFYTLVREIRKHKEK
Description: as §1

KRas G12D, sequence (P01116 1-169 isoform P01116-2 G12D): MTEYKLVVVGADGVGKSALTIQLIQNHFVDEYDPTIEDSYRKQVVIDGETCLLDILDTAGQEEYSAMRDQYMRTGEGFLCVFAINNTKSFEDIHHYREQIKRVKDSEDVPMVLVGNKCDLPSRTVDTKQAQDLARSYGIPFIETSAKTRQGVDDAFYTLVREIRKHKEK

SMILES	IC50 [1] [nM]	IC50 [2] [nM]	IC50 [3] [nM]	IC50 [4] [nM]	IC50 [5] [nM]	IC50 [6] [nM]	IC50 [7] [nM]	IC50 [8] [nM]	IC50 [9] [nM]	IC50 [10] [nM]
O=C1NC(=O)C2(CCCN(c3nc(OC[C@@]45CCCN4C[C@H](F)C5)nc4c(F)c(-c5cc(O)cc6ccc(F)c(Br)c56)ncc34)C2)N1 (stereo partly drawn) [Example 410, 7-(7-(8-bromo-7-fluoro-3-hydroxynaphthalen-1-yl)-8-fluoro-2-(((2R,7aS)-2-fluorohexahydro-1H-pyrrolizin-7a-yl)methoxy)pyrido[4,3-d]pyrimidin-4-yl)-1,3,7-triazaspiro[4.5]decane-2,4-dione]	≤ 2	≤ 2	≤ 2	157	3150	365	603	602	–	–
CCc1c(F)ccc2cc(O)cc(-c3ncc4c(NCC5CCC(=O)N5)nc(OC[C@@]56CCCN5C[C@H](F)C6)nc4c3F)c12 (stereo partly drawn) [Example 371, 5-(((7-(8-ethyl-7-fluoro-3-hydroxynaphthalen-1-yl)-8-fluoro-2-(((2R,7aS)-2-fluorohexahydro-1H-pyrrolizin-7a-yl)methoxy)pyrido[4,3-d]pyrimidin-4-yl)amino)methyl)pyrrolidin-2-one]	7	≤ 2	5	387	≥ 10000	≥ 20000	–	9340	–	–
CCc1c(F)ccc2cc(O)cc(-c3ncc4c(N5CCCC6(C5)NC(=O)NC6=O)nc(OCC5(CN(C)C)CC5)nc4c3F)c12 (centres unmarked) [Example 359, 7-(2-((1-((dimethylamino)methyl)cyclopropyl)methoxy)-7-(8-ethyl-7-fluoro-3-hydroxynaphthalen-1-yl)-8-fluoropyrido[4,3-d]pyrimidin-4-yl)-1,3,7-triazaspiro[4.5]decane-2,4-dione]	≤ 2	≤ 2	≤ 2	60	4100	345	782	576	–	–
NS(=O)(=O)CC1CCCN(c2nc(OC[C@@]34CCCN3C[C@H](F)C4)nc3c(F)c(-c4cc(O)cc5ccc(F)c(Cl)c45)ncc23)C1 (stereo partly drawn) [Example 414, 1-(1-(7-(8-chloro-7-fluoro-3-hydroxynaphthalen-1-yl)-8-fluoro-2-(((2R,7aS)-2-fluorotetrahydro-1H-pyrrolizin-7a(5H)-yl)methoxy)pyrido[4,3-d]pyrimidin-4-yl)piperidin-3-yl)methanesulfonamide]	≤ 2	≤ 2	4	32	3480	1330	269	514	–	–
CCc1c(F)ccc2cc(O)cc(-c3ncc4c(N5CCCn6nc(C(=O)N(C)C)cc6C5)nc(OCC5(CN(C)C)CC5)nc4c3F)c12 [Example 333, 5-(2-((1-((dimethylamino)methyl)cyclopropyl)methoxy)-7-(8-ethyl-7-fluoro-3-hydroxynaphthalen-1-yl)-8-fluoropyrido[4,3-d]pyrimidin-4-yl)-N,N-dimethyl-5,6,7,8-tetrahydro-4H-pyrazolo[1,5-a][1,4]diazepine-2-carboxamide]	≤ 2	≤ 2	5	425	≥ 10000	603	2110	9190	–	–
C#Cc1c(F)ccc2cc(O)cc(-c3ncc4c(N5CCCC6(C5)NC(=O)NC6=O)nc(OC[C@@]56CCCN5C[C@H](F)C6)nc4c3F)c12 (stereo partly drawn) [Example 397, 7-(7-(8-ethynyl-7-fluoro-3-hydroxynaphthalen-1-yl)-8-fluoro-2-(((2R,7aS)-2-fluorohexahydro-1H-pyrrolizin-7a-yl)methoxy)pyrido[4,3-d]pyrimidin-4-yl)-1,3,7-triazaspiro[4.5]decane-2,4-dione]	≤ 2	≤ 2	≤ 2	–	–	903	1000	1460	–	–
CCc1c(F)ccc2cc(O)cc(-c3ncc4c(N5CCCn6nc(CO)cc6C5)nc(OC[C@@]56CCCN5C[C@H](F)C6)nc4c3F)c12 [Example 341, 5-ethyl-6-fluoro-4-(8-fluoro-2-(((2R,7aS)-2-fluorohexahydro-1H-pyrrolizin-7a-yl)methoxy)-4-(2-(hydroxymethyl)-7,8-dihydro-4H-pyrazolo[1,5-a][1,4]diazepin-5(6H)-yl)pyrido[4,3-d]pyrimidin-7-yl)naphthalen-2-ol]	≤ 2	3	≤ 2	86	≥ 10000	472	1040	1320	–	–
CCc1c(F)ccc2cc(O)cc(-c3ncc4c(N5CCC[C@]6(C5)C[C@@](C)(O)C6)nc(OCC56CCCN5CCC6)nc4c3F)c12 [Example 329, cis-6-(7-(8-ethyl-7-fluoro-3-hydroxynaphthalen-1-yl)-8-fluoro-2-((hexahydro-1H-pyrrolizin-7a-yl)methoxy)pyrido[4,3-d]pyrimidin-4-yl)-2-methyl-6-azaspiro[3.5]nonan-2-ol]	6600	1780	3380	≥ 10000	≥ 10000	≥ 20000	–	≥ 20000	2620	1030
CCc1c(F)ccc2cc(O)cc(-c3ncc4c(N5CCC[C@]6(C5)C[C@](C)(O)C6)nc(OCC56CCCN5CCC6)nc4c3F)c12 [Example 328, trans-6-(7-(8-ethyl-7-fluoro-3-hydroxynaphthalen-1-yl)-8-fluoro-2-((hexahydro-1H-pyrrolizin-7a-yl)methoxy)pyrido[4,3-d]pyrimidin-4-yl)-2-methyl-6-azaspiro[3.5]nonan-2-ol]	9	6	18	271	≥ 10000	1720	–	1280	9	9
CCc1c(F)ccc2cc(O)cc(-c3ncc4c(NCCN5C(=O)CNC5=O)nc(OC[C@@]56CCCN5C[C@H](F)C6)nc4c3F)c12 [Example 379, 3-(2-((7-(8-ethyl-7-fluoro-3-hydroxynaphthalen-1-yl)-8-fluoro-2-(((2R,7aS)-2-fluorohexahydro-1H-pyrrolizin-7a-yl)methoxy)pyrido[4,3-d]pyrimidin-4-yl)amino)ethyl)imidazolidine-2,4-dione]	111	14	34	≥ 10000	≥ 10000	≥ 20000	–	≥ 20000	21	26
CCc1c(F)ccc2cc(O)cc(-c3ncc4c(NCC5CC(=O)N5)nc(OC[C@@]56CCCN5C[C@H](F)C6)nc4c3F)c12 (single isomer, unassigned) [Example 373]	5	≤ 2	≤ 2	103	≥ 10000	4070	–	3840	–	–
CCc1c(F)ccc2cc(O)cc(-c3ncc4c(N5CCN6C(=O)NCC6C5)nc(OC[C@@]56CCCN5C[C@H](F)C6)nc4c3F)c12 (stereo partly drawn) [Example 380, 7-(7-(8-ethyl-7-fluoro-3-hydroxynaphthalen-1-yl)-8-fluoro-2-(((2R,7aS)-2-fluorohexahydro-1H-pyrrolizin-7a-yl)methoxy)pyrido[4,3-d]pyrimidin-4-yl)hexahydroimidazo[1,5-a]pyrazin-3(2H)-one]	275	51	71	1100	≥ 10000	≥ 20000	–	3220	54	18
CCc1c(F)ccc2cc(O)cc(-c3ncc4c(N5CCN6C(=O)NC(=O)C6C5)nc(OC[C@@]56CCCN5C[C@H](F)C6)nc4c3F)c12 (stereo partly drawn) [Example 381, 7-(7-(8-ethyl-7-fluoro-3-hydroxynaphthalen-1-yl)-8-fluoro-2-(((2R,7aS)-2-fluorohexahydro-1H-pyrrolizin-7a-yl)methoxy)pyrido[4,3-d]pyrimidin-4-yl) tetrahydroimidazo[1,5-a]pyrazine-1,3(2H,5H)-dione]	23	11	21	282	≥ 10000	≥ 20000	–	741	16	5
CCc1c(F)ccc2cc(O)cc(-c3ncc4c(NCCC5NC(=O)NC5=O)nc(OC[C@@]56CCCN5C[C@H](F)C6)nc4c3F)c12 (stereo partly drawn) [Example 383, 5-(2-((7-(8-ethyl-7-fluoro-3-hydroxynaphthalen-1-yl)-8-fluoro-2-(((2R,7aS)-2-fluorohexahydro-1H-pyrrolizin-7a-yl)methoxy)pyrido[4,3-d]pyrimidin-4-yl)amino)ethyl) imidazolidine-2,4-dione]	13	3	8	–	–	≥ 10000	–	≥ 10000	–	–
